In paper PMC9930781, “Design, synthesis, docking, and anticancer evaluations of new thiazolo[3,2-a] pyrimidines as topoisomerase II inhibitors” (Journal of Enzyme Inhibition and Medicinal Chemistry, 2023):
Like-named read-outs stand apart in the source and are kept apart here.

How the values were obtained:
human topoisomerase II = human topoisomerase II (Homo sapiens, UniProt P11388); assay: DNA Topo II inhibition (kDNA decatenation) assay; format: biochemical; conditions: for IC50: kDNA decatenation, four concentrations 0.1-100 µM, mean ± SD of two independent assays
Description: The ATP-dependent decatenation of kinetoplast DNA (kDNA) obtained from Crithidia fasciculata, which consists of a network of numerous minicircles (2.3 Kb) and some maxicircles, was used to measure topoisomerase II inhibition. Reactions took place in 20 μL and comprised topoisomerase II, 200–300 ng of kDNA, and 120 mM KCl with 50 mM Tris-HCl, pH 8, 10 mM MgCl2, 0.5 mM ATP, and 0.5 mM dithiothreitol. In preliminary tests, the quantity of topoisomerase II (5 units) was changed to decatenate almost 100% of the kDNA under these assay circumstances. […] The products in the reaction mixture were separated by a 1% agarose gel after the reaction was complete and then could be seen after being stained with ethidium bromide (0.2 μg/mL). The gels were run at 100 V for about 40 min and visualised under UV transillumination.
This assay is based on the fact that human Topo II can decatenate interlinked double-stranded DNA molecules.

[1] = test system: A549 non-small cell lung cancer (NSCLC) cell line; assay: MTT cytotoxicity assay, A549; conditions: Homo sapiens, A549, 24 h
Description: (§1) The MTT test was used to evaluate the inhibitory effects of the substances on cell proliferation in the aforementioned cell lines. This colorimetric assay targets the mitochondrial succinate dehydrogenase of living cells to change yellow tetrazolium bromide (MTT) to a purple formazan derivative. […] Then, the cells were incubated for 24 h and exposed to various chemical concentrations. 20 μL of a 5 mg/mL MTT solution was applied after a 24-h drug treatment period and incubated for 4 h. To dissolve the produced purple formazan, each well receives 100 μL of dimethyl sulfoxide (DMSO). […] The formula for calculating the relative percentage of cell viability was (A570 of treated samples/A570 of the untreated sample) × 100.

[2] = test system: A498 renal cell carcinoma cell line; assay: MTT cytotoxicity assay, A498; conditions: Homo sapiens, A498, 24 h
Description: as §1

[3] = test system: MCF7 breast cancer cell line; assay: MTT cytotoxicity assay, MCF7; conditions: MCF7, MTT
Description: as §1
The newly prepared compounds were screened against three cancer cell lines: namely, breast cancer cell line MCF7, non-small cell lung cancer (NSCLC) cell line A549, and renal cancer cell line A498, using the MTT colorimetric assay.

[4] = read-out: Cytotoxicity IC50 A549± SD, MTT, A549, 24 h treatment, mean ± SD of two independent assays
[5] = read-out: Cytotoxicity IC50 A498± SD, MTT, A498, 24 h treatment, mean ± SD of two independent assays

Sequence of human topoisomerase II (P11388 whole entry): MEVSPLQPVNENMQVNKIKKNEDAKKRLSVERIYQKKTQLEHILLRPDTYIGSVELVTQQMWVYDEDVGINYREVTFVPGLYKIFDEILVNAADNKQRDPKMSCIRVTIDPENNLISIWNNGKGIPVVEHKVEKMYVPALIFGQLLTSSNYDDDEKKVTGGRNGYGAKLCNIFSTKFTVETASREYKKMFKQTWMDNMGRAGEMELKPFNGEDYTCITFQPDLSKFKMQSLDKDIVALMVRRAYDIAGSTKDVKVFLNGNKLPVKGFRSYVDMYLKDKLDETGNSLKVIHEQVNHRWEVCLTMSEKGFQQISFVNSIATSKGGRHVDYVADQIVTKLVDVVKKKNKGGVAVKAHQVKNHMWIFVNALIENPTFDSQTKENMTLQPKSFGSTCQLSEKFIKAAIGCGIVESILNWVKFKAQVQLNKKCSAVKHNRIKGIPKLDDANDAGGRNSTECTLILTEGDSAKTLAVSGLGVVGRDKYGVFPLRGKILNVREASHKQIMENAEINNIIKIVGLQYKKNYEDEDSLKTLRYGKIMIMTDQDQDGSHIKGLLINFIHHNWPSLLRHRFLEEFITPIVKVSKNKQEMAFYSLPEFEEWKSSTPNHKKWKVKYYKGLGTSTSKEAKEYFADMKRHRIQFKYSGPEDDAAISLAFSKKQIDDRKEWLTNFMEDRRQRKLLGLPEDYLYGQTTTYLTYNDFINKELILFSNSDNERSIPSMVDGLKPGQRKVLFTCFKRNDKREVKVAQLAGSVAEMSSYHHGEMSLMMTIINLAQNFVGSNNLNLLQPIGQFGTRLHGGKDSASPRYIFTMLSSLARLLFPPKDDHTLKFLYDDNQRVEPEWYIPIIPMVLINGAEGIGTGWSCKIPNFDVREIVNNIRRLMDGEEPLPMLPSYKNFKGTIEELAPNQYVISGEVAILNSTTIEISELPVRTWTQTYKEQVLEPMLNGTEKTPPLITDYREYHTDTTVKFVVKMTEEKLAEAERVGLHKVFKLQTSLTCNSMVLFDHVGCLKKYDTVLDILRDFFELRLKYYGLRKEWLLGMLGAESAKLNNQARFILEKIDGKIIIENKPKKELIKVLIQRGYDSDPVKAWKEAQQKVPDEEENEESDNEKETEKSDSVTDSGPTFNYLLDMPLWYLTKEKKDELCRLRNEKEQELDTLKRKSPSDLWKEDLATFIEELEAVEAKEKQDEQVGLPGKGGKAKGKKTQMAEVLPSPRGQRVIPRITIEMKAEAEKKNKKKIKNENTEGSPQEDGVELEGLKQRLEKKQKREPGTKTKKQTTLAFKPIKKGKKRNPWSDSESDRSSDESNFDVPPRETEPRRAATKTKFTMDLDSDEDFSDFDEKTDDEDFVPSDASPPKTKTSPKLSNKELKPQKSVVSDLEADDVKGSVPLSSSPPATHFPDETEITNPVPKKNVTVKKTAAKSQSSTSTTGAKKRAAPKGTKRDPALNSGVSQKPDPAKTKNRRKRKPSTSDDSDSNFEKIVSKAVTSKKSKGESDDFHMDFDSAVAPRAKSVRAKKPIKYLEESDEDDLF

| Compound | %inh TOPO II (human topoisomerase II; conc 0.1 (μM)) [%] | %inh TOPO II (human topoisomerase II; conc 1 (μM)) [%] | %inh TOPO II (human topoisomerase II; conc 10 (μM)) [%] | %inh TOPO II (human topoisomerase II; conc 100 (μM)) [%] | IC50 (human topoisomerase II) [nM] | IC50 [1, 4] [nM] | IC50 [2, 5] [nM] | melting point [°C] | also measured |
| --- | --- | --- | --- | --- | --- | --- | --- | --- | --- |
| CCOC(=O)C1=C(C)N=C2SC=C(NC(=O)CN3CCN(CC)CC3)N2C1c1ccc(OC)cc1OC (stereo not shown) [Compound 6a] | 26 | 42 | 67 | 83 | 1880 ± 110 | 8 | 2 | – | – |
| CCOC(=O)C1=C(C)N=c2sc(=Cc3ccc(OC)cc3)c(=O)n2C1c1ccc(OC)cc1OC (stereo not shown) [Compound 3b, Ethyl 5–(2,4-dimethoxyphenyl)-2–(4-methoxybenzylidene)-7-methyl-3-oxo-2,3-dihydro-5H-thiazolo[3,2-a]pyrimidine-6-carboxylate] | 19 | 30 | 48 | 80 | 6140 ± 360 | 24 | 46 | 175 to 177 | – |
| CCOC(=O)C1=C(C)N=C2SC=C(NC(=O)Nc3ccc(Cl)c(C(F)(F)F)c3)N2C1c1ccc(OC)cc1OC (stereo not shown) [Compound 7b, Ethyl 3–(3-(4-chloro-3-(trifluoromethyl)phenyl)ureido)-5–(2,4-dimethoxyphenyl)-7-methyl-5H-thiazolo[3,2-a]pyrimidine-6-carboxylate] | 28 | 52 | 71 | 88 | 1050 ± 60 | 19 | 9 | – | – |
| CCOC(=O)C1=C(C)N=c2sc(=Cc3cc(OC)c(OC)c(OC)c3)c(=O)n2C1c1ccc(OC)cc1OC (stereo not shown) [Compound 3d, Ethyl 5–(2,4-dimethoxyphenyl)-7-methyl-3-oxo-2–(3,4,5-trimethoxybenzylidene)-2,3-dihydro-5H-thiazolo[3,2-a]pyrimidine-6-carboxylate] | 28 | 41 | 59 | 85 | 2210 ± 130 | 12 | 4 | 190 to 192 | – |
| CCOC(=O)C1=C(C)N=C2SC=C(NC(=O)c3ccc(Cl)cc3)N2C1c1ccc(OC)cc1OC (stereo not shown) [Compound 4a, Ethyl 3–(4-chlorobenzamido)-5–(2,4-dimethoxyphenyl)-7-methyl-5H-thiazolo[3,2-a]pyrimidine-6-carboxylate] | – | – | – | – | – | – | – | 150 to 152 | – |
| CCOC(=O)C1=C(C)N=C2SC=C(NC(=O)CN3CCOCC3)N2C1c1ccc(OC)cc1OC (stereo not shown) [Compound 6b] | 28 | 44 | 67 | 88 | 1510 ± 90 | 6 | 10 | – | – |
| CCOC(=O)C1=C(C)N=C2SCC(=O)N2C1c1ccc(OC)cc1OC (stereo not shown) [Compound 3a, Ethyl 5–(2,4-dimethoxyphenyl)-7-methyl-3-oxo-3,5-dihydro-5H-thiazolo[3,2-a] pyrimidine-6-carboxylate] | – | – | – | – | – | 93 | 73 | 195 to 197 | – |
| CCOC(=O)C1=C(C)N=c2sc(=Cc3ccc(OC)cc3OC)c(=O)n2C1c1ccc(OC)cc1OC (stereo not shown) [Compound 3c, Ethyl 2–(2,4-dimethoxybenzylidene)-5–(2,4-dimethoxyphenyl)-7-methyl-3-oxo-2,3-dihydro-5H-thiazolo[3,2-a]pyrimidine-6-carboxylate] | 31 | 45 | 63 | 89 | 1390 ± 80 | 19 | 9 | – | – |
| COc1cccc2c1C(=O)c1c(O)c3c(c(O)c1C2=O)C[C@@](O)(C(=O)CO)C[C@@H]3O[C@H]1C[C@H](N)[C@H](O)[C@H](C)O1 [Doxorubicin, reference compound] | 30 | 51 | 77 | 90 | – | – | – | – | IC50 ([1]; read-out: Cytotoxicity IC50 A549± SD): 13 nM; IC50 ([2]; read-out: Cytotoxicity IC50 A498± SD): 7 nM |
| Ethyl 5–(2,4-dimethoxyphenyl)-7-methyl-3-((2-oxo-2-(piperazin-1-yl)ethyl)amino)-5H-thiazolo[3,2-a]pyrimidine-6-carboxylate [Compound 6c] | – | – | – | – | – | – | – | – | % viability ([3]; 0.4ug): 77.067%; % viability ([3]; 1.6ug): 70.045%; % viability ([3]; 6.3ug): 60.702%; % viability ([3]; 25ug): 51.13%; % viability ([3]; 100ug): 43.771% |
| CCOC(=O)C1=C(C)N=C2SC=C(N)N2C1c1ccc(OC)cc1OC (stereo not shown) [Compound 2, ethyl 3-amino-5–(2,4-dimethoxyphenyl)-7-methyl-5H-thiazolo[3,2-a] pyrimidine-6-carboxylate] | – | – | – | – | – | 23 | 332 | 172 to 174 | – |
| CCOC(=O)C1=C(C)N=C2SC=C(NC(=O)Nc3ccc(Cl)cc3)N2C1c1ccc(OC)cc1OC (stereo not shown) [Compound 7a, Ethyl 3–(3-(4-chlorophenyl)ureido)-5–(2,4-dimethoxyphenyl)-7-methyl-5H-thiazolo[3,2-a]pyrimidine-6-carboxylate] | 20 | 34 | 57 | 84 | 3560 ± 210 | – | – | – | – |
| ethyl 4–(2,4-dimethoxyphenyl)-6-methyl-2-thioxo-1,2,3,6-tetrahydropyrimidine-5-carboxylate [Compound 1] | – | – | – | – | – | – | – | – | % viability ([3]; 0.4ug): 81.002%; % viability ([3]; 1.6ug): 67.624%; % viability ([3]; 6.3ug): 61.271%; % viability ([3]; 25ug): 51.07%; % viability ([3]; 100ug): 44.533% |
| CCOC(=O)C1=C(C)N=C2SC=C(NC(=O)CCl)N2C1c1ccc(OC)cc1OC (stereo not shown) [Compound 5, ethyl 3–(2-chloroacetamido)-5–(2,4-dimethoxyphenyl)-7-methyl-5H-thiazolo[3,2-a]pyrimidine-6-carboxylate] | – | – | – | – | – | – | – | 150 to 152 | – |
